How the values were obtained:
[1] = tested on: OVA-sensitized BALB/c mice; assay: Adoptive transfer of NKT cells from glycolipid-treated mice into OVA-sensitized BALB/c recipients (AHR, BAL); format: in vivo, mouse; settings: OVA-sensitized WT recipients
[2] = tested on: BALB/c mice; assay: OVA-induced AHR in adult mice treated with glycolipid at 2 weeks of age; format: in vivo, mouse; settings: 2 wk old mice treated i.p. (α-C-GalCer 5 μg, α-GalCer 2 μg, PI57 50 or 100 μg, PBS30 50 μg); AHR induced 6 wks (42 days) later
Description: In FIGS. 6A-6B, two-week-old BALB/c mice (n=6-8/group) (6A) or Tbet^−/− mice (6B) (n=4-6 per group) received 5 μg […] (cGal), 2 μg α-GalCer, or vehicle. After OVA sensitization and challenge, AHR was measured on day 44. In FIG. 6C, donor mice were treated with α-C-GalCer (5 μg) or vehicle i.p. NKT cells served as donors, as in FIG. 4A (n=4 per group). Lung resistance (left) and cell counts in BAL (right) were assessed. […] In FIG. 6E, mice received PI57 (50 μg), α-GalCer (2 μg), or vehicle i.p., and lungs were examined 1 or 14 days later for CD4 and CD8 expression. In FIG. 6F, absolute numbers of CD4^+ NKT and DN NKT subsets from 6E were assessed. In FIG. 6G, BALB/c mice (n=5-8/group) received PI57 or vehicle i.p. Lung resistance (left) and BAL cells (right) were assessed. In FIG. 6H, BALB/c mice treated with PI57 (50 μg), PBS30 (Sphingomonas glycolipid) (50 μg), or vehicle i.p. were assessed for AHR as in 6G. In FIG. 6I, donor mice were treated with PI57 (50 μg) or vehicle i.p. NKT cells served as donors as in FIG. 4A. Lung resistance (left) and BAL cells (right) were assessed (n=4 per group). […] Data represent 2-3 independent experiments. *P<0.05, #P<0.05, ***P<0.001 versus vehicle-OVA (6C, 6G, and 6I), DN NKT saline (6F), and CD4^+ NKT saline (6F).
Induction of AHR and measurement of airway responsiveness in the OVA model.
To induce AHR, BALB/c mice were sensitized with 100 μg of OVA (Sigma-Aldrich) in alum administered i.p (on day 0). After sensitization, mice were exposed to intranasal antigen (50 μg OVA/day) or normal saline for 1 day (day 7; single dose challenge protocol), or for 3 consecutive days (days 7, 8, 9). AHR was assessed on the day after last OVA-challenge. Control mice received i.p. injection of PBS and intranasal administrations of normal saline.

[3] = tested on: BM2a.3 cells; assay: Human NKT cell clone on CD1d Fc-coated plates loaded with lipid, IFN-γ ELISA; format: cell-based; settings: 5×10^4 NKT cells, 24 hours
Description: In FIG. 7A, NKT cell lines were cocultured with BM-derived DCs (BMDCs) and α-GalCer (100 ng/ml), PI57 (10 μg/ml), or vehicle for 48 hours, with or without pre-incubation with anti-CD1d (10 μg/ml). IFN-γ was measured by ELISA. In FIG. 7B, murine NKT cell lines were cocultured as in 7A with BMDCs from WT, Cd1d^−/−, Myd88^−/−, or Trif^−/− mice. Cells were treated with α-GalCer (100 ng/ml), PI57 (2.5, 5, or 10 μg/ml), PBS30 (1, 2.5, or 5 μg/ml), or vehicle for 48 hours. IFN-γ and IL-4 were measured by ELISA. […] In FIG. 7D, mouse NKT cell lines were stained with PE-labeled CD1d tetramers of PI57 or α-GalCer at 4° C. for 45 minutes or 37° C. for 25 minutes, and with anti-TCRβ-APC antibody. Top: Lymphocytes were gated in the FSC/SSC window. Bottom: Percentage of CD1d tetramer+ cells. […] IFN-γ was analyzed by ELISA after 24 hours. […]
Maxisorp plates (Nunc) were coated with PBS diluted recombinant human CD1d/β2 microglobulin Fc fusion proteins (0.5 μg/well; kindly provided by Dr. Jenny Gumperz (64) and anti-LFA-1 antibodies (0.05 μg/well, AbD Serotec) overnight at 4° C. After washing with PBS, immobilized CD1d was loaded with sonicated lipid antigens diluted in 25% DMSO/dH2O by overnight incubation at 37° C. After washing with PBS and culture media, NKT cells were added (5×10^4 cells/well) and culture supernatants were analyzed for IFN-γ by ELISA after overnight culture at 37° C.

[4] = tested on: pulmonary NKT cells; assay: Lung NKT cell subsets (CD4+, DN) by FACS after i.p. glycolipid in 2 week-old mice; format: in vivo, mouse; settings: i.p. PI57 50 μg or α-GalCer 2 μg, lung 2 wks later
Description: In FIGS. 6A-6B, two-week-old BALB/c mice (n=6-8/group) (6A) or Tbet^−/− mice (6B) (n=4-6 per group) received 5 μg […] (cGal), 2 μg α-GalCer, or vehicle. After OVA sensitization and challenge, AHR was measured on day 44. In FIG. 6C, donor mice were treated with α-C-GalCer (5 μg) or vehicle i.p. NKT cells served as donors, as in FIG. 4A (n=4 per group). Lung resistance (left) and cell counts in BAL (right) were assessed. […] In FIG. 6E, mice received PI57 (50 μg), α-GalCer (2 μg), or vehicle i.p., and lungs were examined 1 or 14 days later for CD4 and CD8 expression. In FIG. 6F, absolute numbers of CD4^+ NKT and DN NKT subsets from 6E were assessed. In FIG. 6G, BALB/c mice (n=5-8/group) received PI57 or vehicle i.p. Lung resistance (left) and BAL cells (right) were assessed. In FIG. 6H, BALB/c mice treated with PI57 (50 μg), PBS30 (Sphingomonas glycolipid) (50 μg), or vehicle i.p. were assessed for AHR as in 6G. In FIG. 6I, donor mice were treated with PI57 (50 μg) or vehicle i.p. NKT cells served as donors as in FIG. 4A. Lung resistance (left) and BAL cells (right) were assessed (n=4 per group). […]
Cells were preincubated with anti-Fey blocking mAb (2.4G2) and washed before staining. […] Cells were analyzed on a BDCanto flow cytometer (BD Biosciences) using FlowJo 8.3.3 software (Tree Star, Inc.).

CCCCCCCCCCCCCC(=O)OC[C@H]1O[C@H](O[C@H]2CC[C@@]3(C)C(=CC[C@H]4[C@@H]5CC[C@H]([C@H](C)CCCC(C)C)[C@@]5(C)CC[C@@H]43)C2)[C@H](O)[C@@H](O)[C@@H]1O [PI57, Cholesteryl 6-O-tetradecanoyl-α-D-glucopyranoside]
airway inflammation (BAL cells, lung sections) in recipients of NKT cells from glycolipid-treated donors ([1]; donors treated i.p. at 2 wk (α-C-GalCer 5 μg, PI57 50 μg)): suppressed AHR and airway inflammation | AHR in recipients of NKT cells from glycolipid-treated donors ([1]; donors treated i.p. at 2 wk (α-C-GalCer 5 μg, PI57 50 μg, or α-GalCer), NKT cells harvested 6 wks later): suppressed AHR | protection against development of OVA-induced AHR (lung resistance) [2]: protected the mice from the development of OVA-induced AHR | IFN-γ induced by plate bound CD1d loaded with glycolipid [3]: induced IFN-γ in BM2a.3 cells | number of NKT cells (CD4+ and DN subsets) in the lung [4]: increased the total number of NKT cells, particularly the number of DN NKT cells
